Test results: paper PMC5902495, “Synthesis of Symmetrical Tetrameric Conjugates of the Radiolanthanide Chelator DOTPI for Application in Endoradiotherapy by Means of Click Chemistry” (Frontiers in Chemistry, 2018)
Where “and” joins values, the source holds several entries; their conditions need not be identical. Identical values can stand only once. Like-named read-outs stand apart in the source and are kept apart here. Marks after values point to notes of the source that are not given here. One block for each compound: values may come before it.

Assays:
[1] = cited from earlier work
[2] = cited from earlier work; remark: listed apart in the source
[3] = 25°C, cited from earlier work
[4] = 25°C, cited from earlier work; remark: listed apart in the source
[5] = Protonation constants of ligands by pH-potentiometry; type: physicochemical; settings: 25°C, I = 0.15 M NaCl
Text: (§1) For determining the protonation constants of DOTPI(Chx)4 and DOTPI three parallel pH-potentiometric titration were made with 0.2 M NaOH in 0.002 M ligand solutions. The stability and protonation constants of the Ca^II and Zn^II complexes formed with DOTPI(Chx)4 and DOTPI ligands have been determined by direct pH-potentiometric titration made at 1:1 and 2:1 metal to ligand concentration ratios. (the concentration of ligands was 0.002 M). For the calculation of the logKML and logKMLHi values, the mL base—pH data used were obtained in the pH range 1.7–12.0.
(§2) For pH measurements and titrations, a Metrohm 785 DMP Titrino titration workstation and a Metrohm-6.0233.100 combined electrode were used. Equilibrium measurements were carried out at a constant ionic strength (0.15 M NaCl) in 6 mL samples at 25°C. The solutions were stirred, and constantly purged with N2. The titrations were performed in a pH range of 1.7–11.7. KH-phthalate (pH = 4.005) and borax (pH = 9.177) buffers were used to calibrate the pH meter. For calculation of [H^+] from measured pH values, the method proposed by Irving et al. was used (Irving et al., [1967]). A 0.01 M HCl solution was titrated with the standardized NaOH solution in the presence of 0.1 M NaCl. Differences between the measured (pHread) and calculated pH (–log[H^+]) values were used to obtain the equilibrium H^+ concentration from the pH values, measured in the titration experiments. For the equilibrium calculations, the stoichiometric water ionic product (pKw) is also needed to calculate [H^+] values in basic conditions. The VNaOH – pHread data pairs of the HCl – NaOH titration obtained in the pH range 10.5–12 have been used to calculate the pKw value (pKw = 13.85). For the calculation of the equilibrium constants the program PSEQUAD (Zekany and Nagypal, [1985]) was used.
(§3) 2. Protonation and complexation equilibria of DOTPI and
(§4) The protonation processes of the DOTPI and DOTPI(Chx)4, ligands have been studied by pH-potentiometry. The protonation constants (logKiH) of ligands are defined according to Eq. (1).
(§5) The stability and protonation constants of DOTPI and DOTPI(Chx)4 complexes with several metal ions were determined by pH-potentiometric and UV/Vis spectrophotometric, methods.
(§6) The stability and protonation constants of the metal complexes formed with the DOTPI and DOTPI(Chx)4, ligands, defined by Eqs. […]
(§7) where i = 1, 2, 3…5. The KML and KMHiL values characterizing the formation of DOTPI and DOTPI(Chx)4 complexes of CaII and ZnII have been calculated from the pH-potentiometric titration data obtained at 1:1 metal to ligand concentration ratios. The protonation constants of the complexes Cu(DOTPI) and Cu(DOTPI( Chx)4) were also determined by pH-potentiometric titrations, made at 1:1 metal to ligand concentration ratio. The pH-potentiometric titrations of DOTPI ligand were also performed at 2:1 metal-to-ligand ratio in order to examine the possible formation of dinuclear CaII-, ZnII-, and CuII-DOTPI complexes.
(§8) The stability and protonation constants of the dinuclear complexes formed with the DOTPI […]
(§9) where i=1 and 2. In calculating the equilibrium constants, the best fit of the mL base – pH data was obtained by assuming the formation of ML, MHL, MH 2L, MH3L, MH4L, MH5L, M2L, M2LH, and M2LH2 complexes with DOTPI and DOTPI(Chx)4.
(§10) (also on this page, place not known: ]H][LH[ ]LH[K 1i iH + − = DOTPI( Chx)4 f ormed ]L][M[ ]ML[K ML = ]H][LMH[ ]LMH[K 1i i LMHi + − = i 3 …5. Ca II Zn II -potentiometric pH - metal -to-ligand Cu II-DOTPI ]M][ML[ ]LM[K 2 LM2 = ]H][LHM[ ]LHM[K 1i2 i2 LHM i2 + − = pH MH 4L,) […]

[6] = Stability and protonation constants of Cu^II complexes (spectrophotometry, pH-potentiometry); type: physicochemical; settings: 25°C
Protocol: Stability constant of Cu(DOTPI) complex was determined by spectrophotometry, studying the Cu^II-DOTPI systems at the absorption band of Cu^II-complex at [H^+] = 0.01– 0.2 M over the wavelength range of 400–800 nm. Concentrations of Cu^II and DOTPI were 1 mM. The H^+ concentration in the samples was adjusted by addition of calculated amounts of 2.0 M HCl, while ionic strength was not constant in these samples. Samples were kept at 25°C for a week. Absorbance values were determined at 9 wavelengths (550, 575, 600, 625, 650, 675, 700, 725, and 750 nm). For calculation of stability and protonation constants of Cu(DOTPI), molar absorptivities of CuCl2, and Cu(HxL) species (wherein x = 0, 1, 2 …5) were determined by recording the spectra of 1.0 × 10^−3, 2.0 × 10^−3 and 3.0 × 10^−3 M solutions of CuCl2 and Cu(DOTPI) in the pH range of 1.7–11.7. The protonation constants of the complexes Cu(DOTPI) and the stability and protonation constants of the dinuclear Cu2(DOTPI) complexes were determined by pH-potentiometric titrations, made at 1:1 and 2:1 metal to ligand concentration ratios.
The stability constant of the Cu(DOTPI(Chx)4) complex has been determined by spectrophotometry with the use of competition reactions between DOTPI(Chx)4 and EDTA for the Cu^2+ at pH = 5.0. The concentration of Cu(EDTA) was 0.2 mM, while that of the DOTPI(Chx)4 was varied between 0.1 and 1.0 mM (5 samples). The samples were kept at 25°C for 2 weeks. The absorbance values and the molar absorptivities of CuCl2, Cu(DOTPI(Chx)4), and Cu(EDTA) have been determined at 11 wavelength (300, 304, 308, 312, 316, 320, 324, 328, 332, 336, and 340 nm) values between 300 and 340 nm. The molar absorptivities of CuCl2, Cu(DOTPI(Chx)4), and Cu(EDTA) were deteremined in 0.05, 0.1, 0.2, 0.3, and 0.4 mM solutions. The absorbance and pH values were determined in the samples after the equilibrium was reached (the time needed to reach the equilibria was determined by spectrophotometry). The spectrophotometric measurements were made with the use of 1.0 cm cells with a Cary 1E spectrophotometer at 25°C. The protonation constants of Cu(DOTPI(Chx)4) complex were determined by pH-potentiometric titrations at 1:1 metal to ligand molar ratio.
as §2, with “The VNaOH – pHread data pairs of the HCl – NaOH titration obtained in the pH range 10.5–12 have been used to calculate the pKw value (pKw = 13.85).” left out
as §3, §4, §5
The stability and protonation constants of the metal complexes formed with the DOTPI and […]

[7] = Stability and protonation constants of Zn^II complexes (pH-potentiometry); type: physicochemical; settings: 25°C
Text: as §1, §2, §3, §4, §5, §6, §7, §8, §9, §10

[8] = Stability and protonation constants of Ca^II complexes (pH-potentiometry); type: physicochemical; settings: 25°C, I = 0.15 M NaCl, potentiometry
Text: as §1, §2, §3, §4, §5, §6
as §7, with “The pH-potentiometric titrations of DOTPI ligand were also performed at 2:1 metal-to-ligand ratio in order to examine the possible formation of dinuclear CaII-, ZnII-, and CuII-DOTPI complexes.” left out

[9] = design: method as in Chaves et al., [1992]; settings: ref Chaves et al., [1992]; cited from earlier work
[10] = 25°C, I = 0.15 M NaCl, ref Baranyai et al., [2010]
[11] = I = 0.15 M NaCl, ref Takács et al., [2014]
[12] = 25°C, I = 0.1 M KNO3, ref Bazakas and Lukeš, [1995], Kotková et al., [2009]
[13] = 25°C, I = 0.1 M KNO3, ref Lázár et al., [1991]
[14] = I = 0.1 M KNO3, ref Baranyai et al., [2007]
[15] = I = 0.1 M KNO3, ref Desreux et al., [1981]

SMILES: O=C(O)CN1CCN(CC(=O)O)CCN(CC(=O)O)CCN(CC(=O)O)CC1 [DOTA, 1,4,7,10-tetraazacyclododecane-1,4,7,10-tetraacetic acid]
log K1H [1, 10]: 9.14
log K2H [1, 10]: 9.21
log K3H [1, 10]: 4.48
log K4H [1, 10]: 4.03
log K5H [1, 10]: 1.99
log K6H [1, 10]: 1.58
Σlog KiH (total basicity) [1, 10]: 30.43
protonation constant CuH2L ([2]; 25°C, 0.15 M NaCl): 3.41 (1)
protonation constant CuH3L ([2]; 25°C, 0.15 M NaCl): 0.83 (2)
protonation constant CuHL ([2]; 25°C, 0.15 M NaCl): 4.08 (1)
logKML, CuL ([2]; 25°C, I = 0.15 M NaCl, ref Takács et al., [2014]): 21.97 (1)
protonation constant ZnH2L ([3]; 0.15 M NaCl): 3.40 (1)
protonation constant ZnHL ([3]; 0.15 M NaCl): 4.16 (2)
logKML, ZnL [3, 11]: 17.35 (1)
protonation constant CaHL ([4]; 0.15 M NaCl): 3.90 (2)
logKML, CaL [4, 11]: 13.84 (1)

SMILES: O=C(O)CN(CCN(CC(=O)O)CC(=O)O)CC(=O)O [EDTA, ethylenediamine-tetraacetic acid]
logK1H ([1]; taken from the literature): 9.43
logK2H ([1]; taken from the literature): 6.12
logK3H ([1]; taken from the literature): 2.85
logK4H ([1]; taken from the literature): 2.18
logK5H ([1]; taken from the literature): 1.77

SMILES: O=[PH](O)CN1CCN(C[PH](=O)O)CCN(C[PH](=O)O)CCN(C[PH](=O)O)CC1 [DOTP^H]
log K1H [1, 12]: 10.41 and 10.58
log K2H [1, 12]: 6.83 and 6.93
log K3H [1, 12]: 1.97 and 1.90
Σlog KiH (total basicity) [1, 12]: 19.21 and 19.41
log K1H [1, 13]: 10.94
log K2H [1, 13]: 8.24
log K3H [1, 13]: 3.71
Σlog KiH (total basicity) [1, 13]: 22.89
logKML, CuL ([2]; 25°C, I = 0.1 M KNO3, ref Baranyai et al., [2007]): 18.03
logKML, CuL ([2]; 25°C, I = 0.1 M KNO3, ref Desreux et al., [1981]): 19.59
protonation constant ZnHL ([3]; 0.1 M KNO3): 2.62
logKML, ZnL [3, 14]: 14.60
logKML, ZnL [3, 15]: 15.80
protonation constant CaHL ([4]; 0.1 M KNO3): 3.94
logKML, CaL [4, 14]: 9.46
logKML, CaL [4, 15]: 9.39

log K1H [5]: 9.89 (1)
log K2H [5]: 7.73 (1)
log K3H [5]: 3.34 (1)
Σlog KiH (total basicity) ([5]; distant carboxylate groups of DOTPI not considered): 20.96
protonation constant CuH2L ([6]; 0.15 M NaCl): 1.55 (2)
protonation constant CuHL ([6]; 0.15 M NaCl): 2.46 (1)
logKML, CuL ([6]; I = 0.15 M NaCl, UV/Vis spectroscopy): 20.42 (1)^a
protonation constant ZnHL ([7]; 0.15 M NaCl): 2.44 (8)
logKML, ZnL ([7]; I = 0.15 M NaCl, potentiometry): 15.13 (1)^b
logKML, CaL [8]: 8.99 (2)^b
SMILES: O=C(CCP(=O)(O)CN1CCN(CP(=O)(O)CCC(=O)NC2CCCCC2)CCN(CP(=O)(O)CCC(=O)NC2CCCCC2)CCN(CP(=O)(O)CCC(=O)NC2CCCCC2)CC1)NC1CCCCC1 [DOTPI(Chx)4]

SMILES: O=C([O-])CN1CCN(CC(=O)O)CCN(CC(=O)O)CCN(CC(=O)O)CC1.[Na+] [[Na(DOTA)]^3−]
logKNaL [9]: 4.38

SMILES: O=C([O-])CN(CCN(CC(=O)[O-])CC(=O)[O-])CC(=O)[O-].[Cu+2] [Cu(EDTA), reference compound]
stability constant of the Cu(EDTA) complex ([2]; taken from the literature): 19.05
